This is an account of results in patent US12312599B2, “Methods, compositions, and kits for producing beige adipocytes and treating metabolic disorders” (MaineHealth, priority 2018, dated 2025).

For the assay, the system named is FD-MSCs. Description: UCP1 expression time course of FD-MSCs during adipogenic differentiation. In kind it is cell-based, human. On the procedure: All assays were performed between 7 and 15 passages. For osteocyte differentiation, mature MSCs were grown in 24 well culture plates to 100% confluency in MesenCult-ACF and induced to differentiate in OsteoLife Complete Osteogenesis Medium (Lifeline Cell Technology) for 21 days prior to staining with Lifeline Alizarin Red Stain to visualize calcium deposition. For chondrocyte differentiation. For beige adipogenic precursor generation, cells were grown in 24 well culture plates to 90% confluence and treated with 5 uM SB413542 (Sigma) and 10 nM human IL-4 (Peprotech) for 2 days. For beige adipogenic induction, adipogenic precursors are differentiated for 3 days with adipogenic medium consisting of T3 (2 nM), insulin (170 nM), rosiglitazone (1 μM), SB413542 (5 uM), IBMX (0.5 mM), dexamethasone (5 μM) and indomethacin (125 μM) in EGM-2 medium (Lonza) supplemented with the BulletKit minus FGF2 (modified from^33). Thereafter, cells are maintained in adipogenic medium without IBMX, dexamethasone and indomethacin. The medium was changed every 3 days and adipocytes were fully differentiated by 9-12 days as determined by lipid accumulation and peak expression of UCP1. Cell Isolation, Expansion and Differentiation of Interscapular Brown Adipose Tissue Preadipocytes • 1. Prior to adipose cell isolation, warm DMEM, FBS and cell wash buffer to room temperature. • 2. […]

Regarding `NC(=O)c1ccc(-c2nc(-c3ccc4c(c3)OCO4)c(-c3ccccn3)[nH]2)cc1` [SB, SB431542], the “shift of the peak of UCP1 expression (earlier)” value (additional SB pretreatment prior to adipogenic differentiation) is reported as 3 days. The “UCP1 gene expression (qPCR)” value (differentiated in the presence of SB) was “large increase”.
